Laboratory results as given in patent US8865672B2, “Prevention of tissue ischemia and related methods” (The United States of America, as represented by the …, priority 2006, dated 2014).

Tests used:
HAVSMC = assay: 3D collagen matrix contraction assay, human aortic VSMC; format: cell-based; conditions: for TSP1 block of NO relaxation of FCS-induced gel contraction: human aortic VSMC pretreated with 10 μM morpholino
Description: Type I collagen gel (3 mg/ml) with 10×M199 (Gibco, Grand Island, N.Y.) at a 10:1 ratio of collagen to medium was prepared, pH balanced with NaOH and seeded with either HAVSMC or VSMC harvested from aortic segments from C57B16 WT or TSP1 null mice (50,000 cells in 75 μl of gel/well) and aliquoted to 96-well plates (Nunc, Denmark). Plates were incubated for 12 h 37° C. and 5% CO2 allowing for gelation and cell spreading, gently released from the well walls and incubated in serum and additive deficient growth medium with 0.1% BSA in the presence of the indicated treatment agents for 10 h. Contraction was determined by measuring the diameter in perpendicular planes (x, y) of each disk, an average obtained and surface area calculated as (d/2)^2π. Experiments were performed in triplicate. Results represent the mean±SD of at least three separate experiments.
(§1) Human aortic VSMC were plated onto 12-well culture plates (Nunc) at a density of 5×10^4 cells/well in SM-GM+2% FCS and cultured until approximately 90% confluent. A translation-blocking antisense morpholino oligonucleotide complementary to human and murine CD47 ([…]; SEQ ID NO: 21) and a five-base mismatch control (CGTgACAGcCAcGACCgACTGCgCA; SEQ ID NO: 22) were obtained from GeneTools (Philomath, Oreg.). Cultured cells were treated as per the manufacturer's recommendation with morpholinos (10 μM) and utilized within 48 hours of treatment.

[1] = tested on: full thickness skin grafts in mice; assay: Full thickness skin graft (FTSG) model; format: in vivo, mouse; conditions: for FTSG survival: wild type FTSG and wound beds infiltrated at grafting
Description: Wild type, TSP1 null, CD47 null and CD36 null mice were matched for sex and age. Anesthesia was induced by and maintained with inhalation isoflurane. Body temperature was maintained at 37° C. with a heating pad during the procedure. The dorsal surface was clipped of hair and depilated with Nair®. The skin was then cleansed with surgical soap and alcohol and the animals draped. Using sterile technique, a 1×1 cm FTSG incorporating the panniculus carnosus, subcutaneous tissues and skin were raised. Graft dimensions were marked on the animal skin surface with the aid of a template to insure consistency in dimension. Grafts were in the midline of the animal and secured with four interrupted 5-0 nylon sutures. Sutures were so placed as to include the fascia of the dorsal musculature to provide increased immobilization of grafts to the underlying wound bed Animals were awakened and returned to individual cages and allowed ad libitum access to food and water. Trauma to FTSG was not encountered during the post-operative interval since grafts were located in the dorsal midline over the mid thoracic area and each animal was housed individually following surgery. On postoperative day three or seven, the animals were again anesthetized with inhalation isoflurane and skin graft survival evaluated.
The groups of animals utilized and the treatments received as indicated either at the time of skin grafting and/or during the post-operative interval are summarized in FIG. 21. Animals treated with ISDN (1 mg/ml) or L-NAME (0.5 mg/ml) had ad libitum access to drinking water containing the given concentrations of agents during the post-operative interval. Animals treated with a CD47 monoclonal antibody (Ab clone 301) or an isotype matched control antibody (Ig2α) underwent injection of 40 μg delivered as 10 μl of a 4 mg/ml stock in 100 μl of PBS with equal volumes injected between the wound bed and graft prior to suturing the graft in place. Animals treated with a CD47 morpholino oligonucleotide underwent injection of the FTSG and wound bed with 10 μmol/L in 250 μl of PBS with 125 μl volumes injected in the graft and wound bed, respectively prior to suturing the graft in place.
The necrotic areas of the FTSG were determined by color, refill, eschar, and the pin-prick test. The outlines of viable and nonviable areas were traced using transparent film, and the area of necrosis cut from the template and the area of skin graft necrosis versus total skin graft area determined by comparison of the original template weight to the weight of the cut template utilizing the method described by Ueda (Ueda et al., J Surg Res 80(2):200-204, 1998). Skin graft survival area was presented as the ration of graft survival on post-operative day three or seven divided by the original graft area multiplied by 100%. Additionally, digital images were then acquired using an Olympus C5500 digital camera at a fixed distance (20 cm perpendicular to the animal) under standard room lighting with autoflash and macro settings engaged and uploaded for image analysis of tissue survival with a standard software program (Image-Pro Plus, Media Cybernetics, Inc., Silver Spring, Md.). […]
Skin graft wound beds were assessed at indicated time points (72 hours or 7 days post-operatively) for visible alterations in vascularity under 5× magnification. […] Visible vessels without ramifications and branches were counted once. […]

human aortic VSMC = assay: Intracellular cGMP in human aortic VSMC after morpholino; format: cell-based; conditions: for TSP1 inhibition of NO-driven cGMP accumulation: human aortic VSMC pre-treated with morpholino
Description: as §1
cGMP was determined in human aortic VSMC via immunoassay as described (Isenberg et al., Blood 2006; Example 2). In some situations cells were pretreated with a CD47 or control morpholino prior to assay.

Substance	TSP1 block of NO relaxation of FCS-induced gel contraction (HAVSMC)	FTSG survival [1]	TSP1 inhibition of NO-driven cGMP accumulation (human aortic VSMC)	H & E histology of treated wild type FTSG ([1]; mouse, in vivo)	wound bed vascular index ([1]; wild type wound beds)	inhibitory activity of NO on gel contraction (HAVSMC; HAVSMC, DETA/NO 10 μM, TSP1 2.2 nM)	NO-driven cGMP flux (human aortic VSMC; untreated VSMC)
CGTgACAGcCAcGACCgACTGCgCA (antisense CGTGACAGCCACGACCGACTGCGCA; all phosphorodiamidate morpholino (PMO)) [control morpholino, reference compound]	remained sensitive to TSP1 inhibition	significant graft necrosis and loss	retained sensitivity to inhibition				
CGTCACAGGCAGGACCCACTGCCCA (all phosphorodiamidate morpholino (PMO)) [CD47 morpholino]	TSP1 was not able to block this relaxation	79±5%	essentially blind to the inhibitory effects of TSP1	essentially normal tissue architecture without evidence of necrosis	substantial increases in visible vasculature		
TSP1: thrombospondin-1 prepared from human platelets						completely abrogated	complete inhibition of an NO-driven cGMP flux
